Legend:
[1] = Release of SNAC from tablets with or without sodium bicarbonate in simulated gastric buffer; format: physicochemical; conditions: tablet with 100 mg sodium bicarbonate vs without; simulated gastric buffer pH 2.0, 37° C., 50 rotations per minute; FIG. 24
Method: The tablets were in a form of a homogeneous mixture. Each tablet formulation was subjected to a dissolution test in 100 ml of simulated gastric buffer (without pepsin), pH 2.0, at 37° C., according to USP 23 Apparatus 2 (paddle) with 50 rotations per minute. The amount of released SNAC in each sample was determined chromatographically, using an HPLC apparatus with Cosmosil™ 5 C18-MS-II (4.6 ID×250 mm) column. Mobile phase consisted of 50% acetonitrile and 50% phosphoric acid solution (0.1%). Flow rate was 1 ml/minute and injection volume was 25 μl. Amount of released SNAC was calculated as a percentage of the amount of SNAC in the formulation.

[2] = test system: plasma levels of cAMP, a known marker of PTH activity; test: Phase I clinical study: plasma cAMP as marker of PTH activity; format: in vivo, human; conditions: oral 680 μg and subcutaneous 20 μg teriparatide; FIG. 3
Method: In addition, plasma levels of cAMP, a known marker of PTH activity, were determined in order to confirm biological activity of administered PTH. cAMP plasma levels were measured following oral administration of 680 μg teriparatide or subcutaneous injection of 20 μg teriparatide, as described hereinabove.

[3] = test system: patients with established primary hypoparathyroidism (PHP); test: Phase IIa multi-center clinical study of oral teriparatide, 4 times per day for 16 weeks; format: in vivo, human
Method: A Phase IIa multi-center clinical study of an exemplary oral formulation comprising teriparatide was conducted on 19 patients with established primary hypoparathyroidism (PHP) (for more than one year). PHP was postsurgical in 13 patients, autoimmune in 5 patients and hereditary in 1 patient.
The average age of the patients was 44.5 years (range 20.3 to 71 years). At enrollment, the patients were treated with an average of 3.64 grams calcium supplement per day (range 1-10.8 grams per day) and 1.1 μg alphacalcidol supplement per day (range 0-2 μg per day). Patients with low hemoglobin, estimated glomerular filtration rate (eGFR) of less than 40 ml per minute per 1.73 m^2, liver enzymes at least 3 times the upper limit, drug or alcohol abuse, kidney/urinary tract stones, 25-hydroxycholecalciferol (25(OH)D) serum levels of less than 20 ng/ml or BMI outside the range of […] were excluded from the study.
The formulation was composed of teriparatide (750 μg per dose), SNAC, soybean trypsin inhibitor and magnesium stearate.
Teriparatide was administered 4 times per day, prior to meals, for 16 weeks. Following the first two doses, plasma samples were taken for pharmacokinetic analysis by determining teriparatide serum levels according to procedures described in Example 1. On the first day of treatment during follow up visits at the end of weeks 1, 2, 3, 4, 6, 8, 10, 12 and 16, serum calcium, phosphorus, albumin, and creatinine were evaluated, and dose adjustment of supplemental calcium medications was performed based on albumin adjusted calcium (ACa) levels. 24 hour urine samples were collected at the end of weeks 8 and 16. Quality of Life was (QoL) was monitored using a standard questionnaire.

[4] = Phase I clinical study: plasma PTH(1-34) after oral teriparatide tablets vs subcutaneous injection; format: in vivo, human; conditions: healthy volunteers, FIG. 1
Method: A Phase I clinical study of exemplary oral formulations comprising teriparatide (parathyroid hormone (1-34)) was conducted at the Hadassah Clinical Research Center. 42 healthy volunteers were included throughout the study.
The formulation was composed of teriparatide (200, 400, 680, 1400 or 1800 μg), SNAC (sodium 8-N-(2-hydroxybenzoyl) aminocaprylate), soybean trypsin inhibitor and magnesium stearate.
Tablets were administered in the morning after an 8-hour overnight fast and immediately followed by 150 ml of water. At each visit a standard meal was provided 3 hours after drug administration.
To determine parathyroid hormone(1-34) concentrations, blood samples (4 ml each) were drawn via an indwelling catheter from the forearm vein at predetermined time points. The cannula was flushed with 1.5 ml normal saline after each sampling. In addition, to avoid sample dilution, 1 ml of blood was drawn and discarded before the next sample. The blood samples were taken at following times: baseline (predose), 15 minutes, 30 minutes, 45 minutes, 60 minutes, 75 minutes, 90 minutes, 105 minutes, 2 hours, 3 hours, 4 hours and 5 hours post-administration. Each blood sample was collected into a single tube containing EDTA (ethylenediaminetetraacetic acid) and placed on ice. […] PTH levels were measured using an IDS-iSYS automated assay for the measurement of intact PTH in human plasma or serum. […]

[5] = Open label comparative pharmacokinetic study: oral teriparatide tablet with water or sodium bicarbonate solution; format: in vivo, human; conditions: 0.75 mg oral tablet with 150 ml of 3 mg/ml sodium bicarbonate solution vs 150 ml water; ten healthy volunteers; FIG. 25
Method: An open label comparative pharmacokinetic study was performed on ten healthy volunteers. On different visits, each volunteer received the same oral tablet containing 0.75 mg of teriparatide, a recombinant form of parathyroid hormone (1-34) (PTH(1-34)). In the first visit, the tablet was administered with 150 ml water, whereas in the second visit the tablet was administered with 150 ml of 3 mg/ml sodium bicarbonate aqueous solution.
The formulation was composed of teriparatide (0.75 mg), SNAC (sodium 8-N-(2-hydroxybenzoyl) aminocaprylate), soybean trypsin inhibitor (SBTI) and a small amount of magnesium stearate.
Tablets were administered in the morning after an 8-hour overnight fast. At each visit a standard meal was provided 3 hours after drug administration. […] There was a two week period between the two visits.
To determine PTH(1-34) concentrations, blood samples were drawn and PTH(1-34) levels were measured using an IDS-iSYS automated assay, using procedures described in Example 1 hereinabove. Relative absorption was determined based on the AUC (area under curve) parameter.

[6] = Phase IIa study: teriparatide serum levels after oral dosing before and after a meal; format: in vivo, human; conditions: second administration on day 1 vs empty stomach
Method: To determine parathyroid hormone(1-34) concentrations, blood samples (4 ml each) were drawn via an indwelling catheter from the forearm vein at predetermined time points. The cannula was flushed with 1.5 ml normal saline after each sampling. In addition, to avoid sample dilution, 1 ml of blood was drawn and discarded before the next sample. The blood samples were taken at following times: baseline (predose), 15 minutes, 30 minutes, 45 minutes, 60 minutes, 75 minutes, 90 minutes, 105 minutes, 2 hours, 3 hours, 4 hours and 5 hours post-administration. Each blood sample was collected into a single tube containing EDTA (ethylenediaminetetraacetic acid) and placed on ice. Within 15 minutes of blood collection, samples were centrifuged for 10 minutes at 4° C. […] PTH levels were measured using an IDS-iSYS automated assay for the measurement of intact PTH in human plasma or serum.
Teriparatide was administered 4 times per day, prior to meals, for 16 weeks. […] On the first day of treatment during follow up visits at the end of weeks 1, 2, 3, 4, 6, 8, 10, 12 and 16, serum calcium, phosphorus, albumin, and creatinine were evaluated, and dose adjustment of supplemental calcium medications was performed based on albumin adjusted calcium (ACa) levels. […] Quality of Life was (QoL) was monitored using a standard questionnaire.

hypoparathyroidism = conditions: cited from earlier work
[7] = patient, 16-week treatment, FIG. 8

In the case of `O=C(O)CCCCCCCNC(=O)c1ccccc1O` [SNAC, sodium 8-N-(2-hydroxybenzoyl)aminocaprylate], the “dissolution of SNAC from tablets, effect of sodium bicarbonate” value [1] was “considerably enhanced the dissolution”.

For `CC[C@H](C)[C@H](NC(=O)[C@H](CCC(=O)O)NC(=O)[C@H](CO)NC(=O)[C@@H](NC(=O)[C@@H](N)CO)C(C)C)C(=O)N[C@@H](CCC(N)=O)C(=O)N[C@@H](CC(C)C)C(=O)N[C@@H](CCSC)C(=O)N[C@@H](Cc1cnc[nH]1)C(=O)N[C@@H](CC(N)=O)C(=O)N[C@@H](CC(C)C)C(=O)NCC(=O)N[C@@H](CCCCN)C(=O)N[C@@H](Cc1cnc[nH]1)C(=O)N[C@@H](CC(C)C)C(=O)N[C@@H](CC(N)=O)C(=O)N[C@@H](CO)C(=O)N[C@@H](CCSC)C(=O)N[C@@H](CCC(=O)O)C(=O)N[C@@H](CCCN=C(N)N)C(=O)N[C@H](C(=O)N[C@@H](CCC(=O)O)C(=O)N[C@@H](Cc1c[nH]c2ccccc12)C(=O)N[C@@H](CC(C)C)C(=O)N[C@@H](CCCN=C(N)N)C(=O)N[C@@H](CCCCN)C(=O)N[C@@H](CCCCN)C(=O)N[C@@H](CC(C)C)C(=O)N[C@@H](CCC(N)=O)C(=O)N[C@@H](CC(=O)O)C(=O)N[C@H](C(=O)N[C@@H](Cc1cnc[nH]1)C(=O)N[C@@H](CC(N)=O)C(=O)N[C@@H](Cc1ccccc1)C(=O)O)C(C)C)C(C)C` [teriparatide], the “plasma cAMP levels” value [2] was “increased plasma cAMP levels to a similar degree”, the “urinary calcium, margin below the upper limit of normal” value ([3]; 3 subjects with sustained elevations) was “more than 30%” and the “average decrease in urinary calcium” value ([3]; 13 subjects with sustained decrease) was 34%. For the same compound, the urinary calcium ([3]; 13 subjects with sustained decrease, from 209 mg per 24 hours) was 136 mg per 24 hours, the “serum phosphorus after each dose, range” value ([3]; 60 minutes after oral dose, throughout 16 weeks) was 2.9 to 5.2 mg/dL and the “serum phosphorus, average level after each dose” value ([3]; 60 minutes after oral dose, throughout 16 weeks, p<0.02, FIG. 5) was 4.3 mg/dL. The “pre-dose serum phosphorus levels” value ([3]; FIG. 5) was “reduced following 2 weeks of treatment”, the “reduction of calcium intake” value ([3]; after 16 weeks, relative to baseline) was 1278 ± 880 mg and the “average reduction of calcium intake” value ([3]; after 16 weeks, relative to baseline, FIG. 4) was 37%. For the same compound, the calcium intake ([3]; after 16 weeks, baseline 3692 mg) was 2414 mg, the “subjects with urinary calcium above the normal range” value ([3]; at the end of 16 weeks, subjects who completed the study) was “one of the 17” and the “albumin adjusted calcium, range” value ([3]; during treatment, baseline range 7.2-8.99) was 6.97-9.14 md/dL. For the same compound, the “albumin adjusted calcium, mean level” value ([3]; maintained during treatment while calcium intake was decreased, baseline 7.92) was 8.15 mg/dL, the related adverse events ([3]; oral 750 μg per dose, 4 times per day, 16 weeks, 17 subjects completed) was “no related adverse events” and the safety and tolerability ([3]; oral 750 μg per dose, 4 times per day, 16 weeks, 17 subjects completed, over 8000 doses) was “safe and well tolerated”. For the same compound, the “reduction of calcium intake, sample case” value [3, 7] was “over 50%”, the “reduction of urinary calcium levels, sample case” value [3, 7] was “over 50%” and the “total serum levels of 25-hydroxycholecalciferol (25(OH)D), sample case” value ([3]; patient, end of week 4, baseline 32.2 ng/ml, constant alphacalcidol) was 36.7 ng/mL. For the same compound, the “ACa levels, sample case” value ([3]; patient, FIG. 9) was “gradually increased”, the “serum phosphate levels, sample case” value ([3]; patient, FIG. 9) was “gradually decreased” and the “Quality of Life health score, sample case” value ([3]; patient, increased from 70) was 80. For the same compound, the “Cmax of PTH(1-34) following oral administration, relation to dose” value ([4]; oral doses 200, 400, 680, 1400 or 1800 μg) was “proportional to the dose”, the “oral dose of teriparatide providing a Cmax equivalent to that of subcutaneous administration of 20 μg teriparatide” value ([4]; oral tablets with SNAC, soybean trypsin inhibitor, magnesium stearate, 8-hour overnight fast) was “roughly 750 μg” and the “increase in absorption of PTH(1-34) (AUC)” value [5] was “about 35%”. The “PTH(1-34) serum levels, after a meal relative to prior to a meal, sample case” value ([6]; patient, FIG. 10) was “about half”, the “PTH(1-34) serum levels, after a meal relative to prior to a meal” value ([6]; FIGS. 6 and 7) was “about half” and the “reduction in the PTH dose needed to maintain normal serum calcium levels” value (hypoparathyroidism; pump vs twice-daily subcutaneous injection, from 37 μg per day to 13 μg per day) was 65%. The “reduction in urine calcium” value (hypoparathyroidism; subcutaneous infusion by insulin pump vs twice-daily subcutaneous injection) was “more than 50%”.
